Experiments:
Assay type in all cases: organism-based
Conditions in all cases: in vivo
Phaseolus vulgaris [1] = assay: Phytotoxicity against Phaseolus vulgaris (white beans) assessed as crop injury
Phaseolus vulgaris [2] = assay: Phytotoxicity against Phaseolus vulgaris (kidney bean) assessed as crop injury
Phaseolus vulgaris [3] = assay: Phytotoxicity against Phaseolus vulgaris (black beans) assessed as reduction in plant height applied pre-emergence relative to control; design: scale not given: the % may be the effect or the level left
Phaseolus vulgaris [4] = assay: Phytotoxicity against Phaseolus vulgaris (cranberry beans) assessed as crop injury
Phaseolus vulgaris [5] = assay: Phytotoxicity against Phaseolus vulgaris (white beans) assessed as reduction in plant height applied pre-emergence relative to control; design: scale not given: the % may be the effect or the level left
Phaseolus vulgaris [6] = assay: Phytotoxicity against Phaseolus vulgaris (pink beans) assessed as crop injury
Phaseolus vulgaris [7] = assay: Phytotoxicity against Phaseolus vulgaris (white beans) assessed as reduction in shoot dry weight applied pre-emergence relative to control; design: scale not given: the % may be the effect or the level left
Phaseolus vulgaris [8] = assay: Phytotoxicity against Phaseolus vulgaris (pinto beans)s assessed as reduction in shoot dry weight applied pre-emergence relative to control; design: scale not given: the % may be the effect or the level left
Phaseolus vulgaris [9] = assay: Phytotoxicity against Phaseolus vulgaris (black beans) assessed as reduction in shoot dry weight applied pre-emergence relative to control; design: scale not given: the % may be the effect or the level left
Phaseolus vulgaris [10] = assay: Phytotoxicity against Phaseolus vulgaris (otebo beans) assessed as reduction in shoot dry weight applied pre-emergence relative to control; design: scale not given: the % may be the effect or the level left
Phaseolus vulgaris [11] = assay: Phytotoxicity against Phaseolus vulgaris (pinto beans) assessed as reduction in plant height applied pre-emergence relative to control; design: scale not given: the % may be the effect or the level left
Phaseolus vulgaris [12] = assay: Phytotoxicity against Phaseolus vulgaris (otebo beans) assessed as reduction in plant height applied pre-emergence relative to control; design: scale not given: the % may be the effect or the level left
Phaseolus vulgaris [13] = assay: Phytotoxicity against yellow eye bean assessed as reduction in shoot dry weight applied pre-emergence relative to control; design: scale not given: the % may be the effect or the level left
Phaseolus vulgaris [14] = assay: Phytotoxicity against yellow eye bean assessed as reduction in plant height applied pre-emergence relative to control; design: scale not given: the % may be the effect or the level left
Phaseolus vulgaris [15] = assay: Phytotoxicity against Phaseolus vulgaris (black beans) assessed as reduction in shoot dry weight relative to control; design: scale not given: the % may be the effect or the level left

SMILES	Activity (Phaseolus vulgaris [1])	Activity (Phaseolus vulgaris [2])	Activity (Phaseolus vulgaris [3])	Activity (Phaseolus vulgaris [4])	Activity (Phaseolus vulgaris [5])	other results
CCc1cccc(CC)c1N(COC)C(=O)CCl [ALACHLOR]	6%	0.5%	–	–	–	–
C#CCN1C(=O)COc2cc(F)c(N3C(=O)C4=C(CCCC4)C3=O)cc21 [FLUMIOXAZIN]	17%	–	23%	4%	28%	–
CS(=O)(=O)NC(=O)c1cc(Oc2ccc(C(F)(F)F)cc2Cl)ccc1[N+](=O)[O-] [FOMESAFEN]	–	1%	–	–	–	Activity (Phaseolus vulgaris [6]): 5%
CCc1cnc(C2=NC(C)(C(C)C)C(=O)N2)c(C(=O)O)c1 (stereo not given) [IMAZETHAPYR]	11%	2%	40%	–	40%	–
CON(C)C(=O)Nc1ccc(Cl)c(Cl)c1 [LINURON]	49%	–	24%	4%	24%	Activity (Phaseolus vulgaris [7]): 26%; Activity (Phaseolus vulgaris [8]): 26%; Activity (Phaseolus vulgaris [9]): 26%; Activity (Phaseolus vulgaris [10]): 26%; Activity (Phaseolus vulgaris [11]): 24%; Activity (Phaseolus vulgaris [12]): 24%; Activity (Phaseolus vulgaris [13]): 26%; Activity (Phaseolus vulgaris [14]): 24%
CCc1cccc(C)c1N(C(=O)CCl)[C@@H](C)COC [S-METOLACHLOR]	–	–	–	–	–	Activity (Phaseolus vulgaris [15]): 16%

Source: ChEMBL document CHEMBL3044870, “Effect of clomazone on various market classes of dry beans” (Crop Prot, 2007)
